# In EPA's ToxValDB 9.5:
# “And” between values parts separate entries of the source, which are not always exact repeats. Identical values can stand only once.
# Tests used:
# [1] = system: Rattus norvegicus; conditions: for LEL: uterotrophic, Active; for LOEL / NOEL: Hershberger, duration: 10 days
# [2] = system: Rattus norvegicus; conditions: oral
# [3] = system: Mus musculus; conditions: for LD50: acute, ICI Alderley Park Strain
# [4] = system: Rattus norvegicus; conditions: for LD50: acute
# [5] = injection, subcutaneous, Fischer 344, active + Antiandrogenic + anti-androgenic
# [6] = short-term, duration: 28 days, gavage, M, Sprague-Dawley, Body Weight Changes: decrease + Food Consumption: decrease + Relative Organ Weight: Thyroid increase
# [7] = oral, gavage, Sprague-Dawley, active + Antiandrogenic + anti-androgenic
# [8] = injection, subcutaneous, Sprague-Dawley, active + Androgenic + androgenic
# [9] = oral, gavage, Wistar, active + Androgenic + androgenic
# [10] = oral, gavage, wistar, active + Androgenic + androgenic
# [11] = subchronic, duration: 6 weeks, oral, gavage, F, B6C3F1
# [12] = subchronic, duration: 6 weeks, oral, gavage, M, B6C3F1
# [13] = subchronic, duration: 6 weeks, oral, gavage, F, Osborne-Mendel
# [14] = subchronic, duration: 6 weeks, oral, gavage, M, Osborne-Mendel
# [15] = chronic, duration: 103 weeks, oral, diet, B6C3F1
# [16] = subchronic, duration: 12 weeks, oral, diet, M, B6C3F1
# [17] = chronic, duration: 103 weeks, oral, diet, F, Fischer 344
# [18] = chronic, duration: 103 weeks, oral, diet, M, Fischer 344
# [19] = developmental, duration: 10 days, oral, gavage, Crl:CD(SD)
# [20] = subchronic, duration: 12 weeks, oral, diet, F, Fischer 344
# [21] = subchronic, duration: 12 weeks, oral, diet, M, Fischer 344
smiles,measurement,setting,value
C[C@H]1CCC[C@H](O)CCCCCc2cc(O)cc(O)c2C(=O)O1 [Zearalanol],LEL,"[1]; duration: 3 days, oral",0.03 mg/day
"O=C(c1ccc(O)cc1)c1ccc(O)cc1O [2,4,4'-Trihydroxybenzophenone]",LOEL,[1]; [5],300 mg/kg-day
same,NOEL,[1]; [5],100 mg/kg-day
O=C(c1ccccc1)c1ccccc1 [Benzophenone],LEL,"[1]; duration: 3 days, injection, intraperitoneal",300 mg/kg-day
same,LEL,"[1]; duration: 3 days, injection, subcutaneous",500 mg/kg-day
same,LEL,"[1]; duration: 3 days, oral",400 mg/kg-day
O=C1OC(c2ccc(O)cc2)(c2ccc(O)cc2)c2ccccc21 [Phenolphthalein],LEL,"[1]; duration: 2 days, injection, subcutaneous",1 mg/day
same,NOAEL,[2]; [6],< 200 mg/kg-day
same,NOEL,[2]; [6],< 200 mg/kg-day
same,NOEL,"[2]; subchronic, duration: 13 weeks, diet, F, Fischer 344, Body Weight Changes: decrease + Absolute Organ Weight: Liver + Relative Organ Weight: Right kidney increase, Liver increase",800 mg/kg-day
same,NOEL,"[2]; subchronic, duration: 13 weeks, diet, M/F, Fischer 344, Body Weight Changes: decrease + Absolute Organ Weight: Liver + Relative Organ Weight: Right kidney increase, Liver increase",576 mg/kg-day
CCCCN(CCCC)c1cccc(O)c1 [3-(Dibutylamino)phenol],NOEL,"[1]; oral, gavage, Wistar, inactive + Negative + Negative + anti-androgenic + negative",300 mg/kg-day
CC(C)CCCCCCCOC(=O)c1ccccc1C(=O)OCCCCCCCC(C)C [Diisodecyl phthalate],LOEL,[1]; [7],500 mg/kg-day
same,NOEL,[1]; [7],100 mg/kg-day
O=c1cc(-c2ccc(O)cc2)oc2cc(O)cc(O)c12 [Apigenin],LEL,"[1]; duration: 7 days, oral",5 mg/kg-day
CC(C)([CH2][Sn]([CH2]C(C)(C)c1ccccc1)([CH2]C(C)(C)c1ccccc1)[O][Sn]([CH2]C(C)(C)c1ccccc1)([CH2]C(C)(C)c1ccccc1)[CH2]C(C)(C)c1ccccc1)c1ccccc1 [Fenbutatin oxide],LOEL,"[1]; oral, gavage, wistar, active + Negative + Antiandrogenic + anti-androgenic + decrease in age of partial PPS at 10 / decrease in PPS wt and age at 75 with …",10 mg/kg-day
C[C@]12C=CC3=C4CCC(=O)C=C4CC[C@H]3[C@@H]1CC[C@@H]2O [17beta-Trenbolone],LOEL,[1]; [8],200 mg/kg-day
same,NOEL,[1]; [8],100 mg/kg-day
same,LOEL,"[1]; oral, gavage, Sprague-Dawley, androgenic",40 mg/kg-day
same,LOEL,[1]; [9],40 mg/kg-day
same,NOEL,[1]; [9],8 mg/kg-day
same,LOEL,[1]; [10],40 mg/kg-day
same,NOEL,[1]; [10],8 mg/kg-day
"O=S1(=O)CC=CC1 [2,5-Dihydrothiophene 1,1-dioxide]",LOAEL,[3]; [11],316 mg/kg-day
same,NOAEL,[3]; [11],178 mg/kg-day
same,LOAEL,[3]; [12],1000 mg/kg-day
same,NOAEL,[3]; [12],562 mg/kg-day
same,LD50,"[4]; oral, gavage, Sprague-Dawley",2880 mg/kg
same,NOAEL,"[4]; reproduction developmental, duration: 28 days, oral, gavage, Crj:CD, generation: F0",75 mg/kg-day
same,NOAEL,"[4]; reproduction developmental, duration: 28 days, oral, gavage, Crj:CD, generation: F1",25 mg/kg-day
same,LOAEL,[4]; [13],178 mg/kg-day
same,NOAEL,[4]; [13],100 mg/kg-day
same,LOAEL,[4]; [14],562 mg/kg-day
same,NOAEL,[4]; [14],316 mg/kg-day
O=C([O-])c1[nH]n(-c2ccc(S(=O)(=O)[O-])cc2)c(=O)c1N=Nc1ccc(S(=O)(=O)[O-])cc1.[Na+].[Na+].[Na+] [C.I. Acid Yellow 23],NOAEL (% diet),"[3]; subchronic, duration: 3 months, oral, diet, CD1",5
same,NOAEL,"[3]; subchronic, duration: 3 months, oral, diet, F, CD1",9750 mg/kg-day
same,NOAEL,"[3]; subchronic, duration: 3 months, oral, diet, M, CD1",8100 mg/kg-day
same,NOAEL (% diet),"[4]; chronic, duration: 113 weeks, oral, diet",5
same,NOAEL,"[4]; chronic, duration: 113 weeks, oral, diet, F",3350 mg/kg-day
same,NOAEL,"[4]; chronic, duration: 113 weeks, oral, diet, M",2640 mg/kg-day
same,NOAEL,"[4]; developmental, duration: 19 days, oral, gavage, Osborne-Mendel",> 1000 mg/kg-day
same,NOAEL (% diet),"[4]; reproduction developmental, duration: 114 weeks, oral, diet",5
same,NOAEL,"[4]; reproduction developmental, duration: 114 weeks, oral, diet, M",2640 mg/kg-day and 3350 mg/kg-day
same,NOAEL,"[4]; reproduction developmental, duration: 19 days, oral, gavage, F, Osborne-Mendel",> 1000 mg/kg-day
CCCCCCCCCC(=O)O[C@H]1CC[C@H]2[C@@H]3CCC4=CC(=O)CC[C@@H]4[C@H]3CC[C@]12C [Nandrolone decanoate],LOEL,"[1]; injection, intramuscular, Wistar, active + Androgenic + androgenic",1.5 mg/kg-day
O=S(=O)([O-])c1ccc(N=Nc2c(O)ccc3cc(S(=O)(=O)[O-])ccc23)cc1.[Na+].[Na+] [FD&C Yellow 6],LD50,"[3]; injection, intraperitoneal",≥ 4600 mg/kg and ≤ 5500 mg/kg
same,LD50,[3]; oral,> 6000 mg/kg
same,LOAEL,[3]; [15],4620 mg/kg-day
same,NOAEL,[3]; [15],2310 mg/kg-day
same,LOAEL,[3]; [16],19700 mg/kg-day
same,NOAEL,[3]; [16],9850 mg/kg-day
same,LD50,"[4]; injection, intraperitoneal, Carworth",3800 mg/kg
same,LD50,"[4]; oral, Carworth",> 10000 mg/kg
same,LD50,"[4]; oral, gavage, Wistar",> 2000 mg/kg
same,LOAEL,[4]; [17],> 1950 mg/kg-day
same,NOAEL,[4]; [17],1950 mg/kg-day
same,LOAEL,[4]; [18],1950 mg/kg-day
same,NOAEL,[4]; [18],975 mg/kg-day
same,LOAEL,[4]; [19],300 mg/kg-day
same,NOAEL,[4]; [19],100 mg/kg-day
same,NOAEL,"[4]; reproduction developmental, duration: 126 days, oral, diet, Charles River Albino CD (R), generation: F0",1500 mg/kg-day
same,NOAEL,"[4]; reproduction developmental, duration: 126 days, oral, diet, Charles River Albino CD (R), generation: F1",1500 mg/kg-day
same,NOAEL,"[4]; reproduction developmental, oral, diet, Crl:CD(SD)",500 mg/kg-day
same,LOAEL,[4]; [20],1200 mg/kg-day
same,NOAEL,[4]; [20],576 mg/kg-day
same,LOAEL,[4]; [21],2400 mg/kg-day
same,NOAEL,[4]; [21],1200 mg/kg-day
